Measurements as given in US20150104868A1, “Methods of Maintaining and Improving Biological Cell Function and Activity” (GARGILL INCORPORATED, priority 2012, published 2015).

Tested on: CRL 1730 HUVECs
Assay: Microarray transcriptomics of HUVEC (HGERT/HG, HG/NG)
Assay type: cell-based, human
[1] = HUVEC, 5 mM ERT + 30 mM glucose vs 30 mM glucose
[2] = Prostate cancer, 8MP signaling pathway
[3] = Prostate cancer, Calcium/calmodulin
[4] = Prostate cancer, Carbohydrate binding
[5] = Prostate cancer, DNA binding, second listing
[6] = Prostate cancer, ILK signaling (integrin linked kinase)
[7] = Prostate cancer, Reactive oxygen species
[8] = Prostate cancer, Tyrosine phosphatase activity
[9] = Prostate cancer, Zinc ion transport

## OC[C@@H](O)[C@@H](O)CO [ERT, meso-1,2,3,4-tetrahydroxybutane]
[1]
  HGERT/HG transcript TRIT1: 0.98 Ω
  HGERT/HG transcript TXNDC11: Ψ 1.01
  HGERT/HG transcript U8A3: 0.99
  HGERT/HG transcript USP22: Ψ 1.01
  HGERT/HG transcript VIM: 1.00 Ω
  HGERT/HG transcript VPS4B: 0.99 Ω
  HGERT/HG transcript VPS26A: 0.99
  HGERT/HG transcript WDFY2: Ψ 1.01
  HGERT/HG transcript YME1L1: 1.00 Ω
  HGERT/HG transcript ZMYM1: 0.98 Ω
  HGERT/HG transcript ZNF59B: 0.99
  HGERT/HG transcript ZNF318: Ψ 1.02
[2]
  HGERT/HG BMP6 (Bone morphogenetic protein 6): Ψ 1.01
  HGERT/HG UBE2D1 (Ubiquitin-conjugating enzyme E2D1 (U8C4/5 homolog, yeast)): 0.99 Ω
Prostate cancer, Actin binding
  HGERT/HG CORO1A (Coronin, actin binding protein, 1A): 0.94 Ω
  HGERT/HG PLEC1 (Plectin): Ψ 1.03
[3]
  HGERT/HG C6orf66 (NADH dehydrogenase (ubiquinone) 1 alpha subcomplex, assembly factor 4): 0.99 Ω
  HGERT/HG CIB1 (Calcium and integrin binding 1 (calmyrin)): Ψ 1.00
  HGERT/HG GJC1 (Gap junction protein, gamma 1, 45kDa): Ψ 1.02
  HGERT/HG HPCAL1 (Hippocalcin-like 1): Ψ 1.01
  HGERT/HG SEC31A (SEC31 homolog A (S. cerevisiae)): Ψ 1.01
  HGERT/HG SLC25A24 (Solute carrier family 25 (mitochondrial carrier; phosphate carrier), member 24): 0.99 Ω
[4]
  HGERT/HG B4GALT4 (UDP-Gal:betaGlcNAc beta 1,4-galactosyltransferase, polypeptide 4): 0.98 Ω
  HGERT/HG C10orf125 (Chromosome 10 open reading frame 125): 0.99 Ω
  HGERT/HG EXTL3 (Exostoses (multiple)-like 3): Ψ 1.02
  HGERT/HG GCS2 (Mannosyl-oligosaccharide glucosidase): Ψ 1.02
Prostate cancer, DNA binding
  HGERT/HG ADAR (Adenosine deaminase, RNA-specific): Ψ 1.01
  HGERT/HG ATF6 (Activating transcription factor 6): Ψ 1.01
  HGERT/HG BBX (Bobby sox homolog (Drosophilia)): Ψ 1.02
  HGERT/HG DBT (Dihydrolipoamide branched chain transacylase E2): Ψ 1.01
  HGERT/HG DEAF1 (Deformed epidermal autoregulatory factor 1 (Drosophila)): Ψ 1.02
  HGERT/HG FOXC1 (Forkhead box C1): Ψ 1.01
  HGERT/HG FOXN2 (Forkhead box N2): 0.98 Ω
  HGERT/HG FOXN3 (Forkhead box N3): Ψ 1.01
  HGERT/HG FOXP1 (Forkhead box P1): Ψ 1.01
  HGERT/HG GPBP1 (GC-rich promoter binding protein 1): 0.99 Ω
  HGERT/HG GZF1 (GDNF-inducible zinc finger protein 1): Ψ 1.01
  HGERT/HG HBP1 (HMG-box transcription factor 1): 0.99 Ω
  HGERT/HG HKR1 (HKR1, GU-Kruppel zinc finger family member): 0.98 Ω
  HGERT/HG HNF1B (HNF1 homeobox B): Ψ 1.03
  HGERT/HG KIN (KIN, antigenic determinant of recA protein homolog (mouse)): 0.99 Ω
  HGERT/HG MRRF (Mitochondrial ribosome recycling factor): 0.98 Ω
  HGERT/HG MXD4 (MAX dimerization protein 4): Ψ 1.02
  HGERT/HG PCBP1 (Poly(rC) binding protein 1): Ψ 1.01
  HGERT/HG PIAS4 (Protein inhibitor of activated STAT, 4): Ψ 1.03
  HGERT/HG POLG (Polymerase (DNA directed), gamma): Ψ 1.01
  HGERT/HG POLO1 (Polymerase (DNA directed), delta 1, catalytic subunit 125kDa): Ψ 1.02
  HGERT/HG POLR2K (Polymerase (RNA) II (DNA directed) polypeptide K, 7.0kDa): 0.98 Ω
  HGERT/HG POLR3F (Polymerase (RNA) III (DNA directed) polypeptide F, 39 kDa): 0.98 Ω
  HGERT/HG PRRX1 (Paired related homeobox 1): Ψ 1.01
  HGERT/HG PUF60 (Poly-U binding splicing factor 60KDa): Ψ 1.01
  HGERT/HG RABGEF1 (RAB guanine nucleotide exchange factor (GEF) 1): 0.99 Ω
  HGERT/HG RNF11 (Ring finger protein 11): 0.99 Ω
  HGERT/HG RPA3 (Replication protein A3, 14kDa): 0.99 Ω
  HGERT/HG RYBP (RING1 and YY1 binding protein): Ψ 1.01
  HGERT/HG SARNP (SAP domain containing ribonucleoprotein): 0.98 Ω
  HGERT/HG SOS1 (Son of sevenless homolog 1 (Drosophila)): Ψ 1.06
  HGERT/HG SOX4 (SRY (sex determining region Y)-box 4): Ψ 1.01
  HGERT/HG T8RG1 (Transforming growth factor beta regulator 1): Ψ 1.02
  HGERT/HG TCF12 (Transcription factor 12): 0.99 Ω
  HGERT/HG TCF25 (Transcription factor 25 (basic helix-loop-helix)): Ψ 1.01
  HGERT/HG TOX4 (TOX high mobility group box family member 4): Ψ 1.01
  HGERT/HG TRIM26 (Tripartite motif-containing 26): 0.99 Ω
  HGERT/HG TTF1 (Transcription termination factor, RNA polyrnerase 1): Ψ 1.01
  HGERT/HG UBN1 (Ubinuclein 1): Ψ 1.02
  HGERT/HG ZBED3 (Zinc finger, BED-type containing 3): Ψ 1.01
  HGERT/HG ZNF83 (Zinc finger protein 83): 0.98 Ω
  HGERT/HG ZNF232 (Zinc finger protein 232): Ψ 1.01
  HGERT/HG ZNF267 (Zinc finger protein 267): 0.98 Ω
  HGERT/HG ZNF562 (Zinc finger protein 562): Ψ 1.03
  HGERT/HG ZNF614 (Zinc finger protein 614): 0.98 Ω
  HGERT/HG ZNFT84 (Zinc finger protein 784): 0.99 Ω
  HGERT/HG pdcd6 (Aryl-hydrocarbon receptor repressor): 0.99 Ω
[5]
  HGERT/HG PIAS4 (Protein inhibitor of activated STAT, 4): Ψ 1.03
  HGERT/HG RNF11 (Ring finger protein 11): 0.99 Ω
  HGERT/HG RYBP (RING1 and YY1 binding protein): Ψ 1.01
  HGERT/HG TTF1 (Transcription termination factor, RNA polymerase 1): Ψ 1.01
Prostate cancer, Endothelial cell-cell adhesion
  HGERT/HG JUP (Junction plakoglobin): Ψ 1.01
[6]
  HGERT/HG ACTN1 (Actinin, alpha 1): Ψ 1.01
  HGERT/HG FBUM1 (Gene ID 54751): Ψ 1.02
  HGERT/HG PXN (Paxillin): Ψ 1.01
  HGERT/HG RHOB (Ras homolog gene family, member B): Ψ 1.02
  HGERT/HG RHOJ (Ras homolog gene family, member J): Ψ 1.02
  HGERT/HG RSU1 (Ras suppressor protein 1): 0.99 Ω
  HGERT/HG VIM (Vimentin): 1.00 Ω
[7]
  HGERT/HG COX8A (Cytochrome c oxidase subunit VIIIA (ubiquitous)): 0.99 Ω
  HGERT/HG JUP (Junction plakaglobin): Ψ 1.01
  HGERT/HG MPHOSPH6 (M-phase phosphoprotein 6): 0.99 Ω
  HGERT/HG SDHD (Succinate dehydrogenase complex, subunit D, integral membrane protein): 0.98 Ω
  HGERT/HG SMOX (Spermine oxidase): 0.99 Ω
  HGERT/HG TCF12 (Transcription factor 12): 0.99 Ω
Prostate cancer, Receptor activity
  HGERT/HG PAQR3 (Progestin and adipoQ receptor family member III): 0.98 Ω
Prostate cancer, Steroid hormone receptor activity
  HGERT/HG PGRMC2 (Progesterone receptor membrane component 2): 0.98 Ω
Prostate cancer, Sterol metabolism
  HGERT/HG SOAT1 (Sterol O-acyltransferase 1): 0.97 Ω
[8]
  HGERT/HG DUSP23 (Dual specificity phosphatase 23): 0.99 Ω
  HGERT/HG PTPLAD1 (Protein tyrosine phosphatase-like A domain containing 1): Ψ 1.01
[9]
  HGERT/HG SLC30A6 (Solute carrer family 30 (zinc transporter), member 6): 0.99 Ω
  HGERT/HG SLC30A9 (Solute carrer family 30 (zinc transporter), member 9): 0.99 Ω
  HGERT/HG SLC39A13 (Solute carrer family 39 (zinc transporter), member 13): Ψ 1.01
